The results in this text go back to US9474790B2, “Stable, protracted GLP-1/glucagon receptor co-agonists for medical use” (Novo Nordisk A/S, priority 2013, dated 2016).

Numbered stars: 1 amine (or outer) side, 2 acyl side, 3 side chain; on linkers, the order of the positions; unused ones are H or OH. Square brackets hold non-standard residues; d marks the D form. Side chains are listed from the residue outwards. Peptide text beside a SMILES is read from it. * marks the point of attachment. C18 diacid = O=C(O)CCCCCCCCCCCCCCCCC(=O)*; γGlu = O=C(O)[C@H](CCC(=O)[*:2])N[*:1]; Ac4c = NC1(C(=O)O)CCC1; AEEA = NCCOCCOCC(=O)O; Aib = CC(C)(N)C(=O)O

The nature of this data set: Thioflavin T (ThT) fibrillation assay for physical stability. Type of data set: physicochemical. The note with it: 250 μM in 10 mM HEPES buffer, pH 7.5, 37° C., shaking 960 rpm. Summed up:
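Fibrillation was followed by ThT (1 μM) fluorescence every 20 min, 444/485 nm, for 250 μM peptide in 10 mM HEPES pH 7.5 shaken at 960 rpm, 37° C. Lag time (t0−2τ) and apparent rate constant (1/τ) come from a sigmoidal fit. Recovery is % of initial concentration remaining soluble after centrifugation and filtration (RP-HPLC).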
With `CC(C)C[C@H](NC(=O)[C@H](Cc1ccc(O)cc1)NC(=O)[C@H](CCCCN)NC(=O)[C@H](CO)NC(=O)[C@H](CC(C)C)NC(=O)[C@H](CC(=O)O)NC(=O)[C@H](CO)NC(=O)[C@@H](NC(=O)[C@H](Cc1ccccc1)NC(=O)[C@@H](NC(=O)CNC(=O)[C@H](CCC(N)=O)NC(=O)C(C)(C)NC(=O)[C@@H](N)Cc1c[nH]cn1)[C@@H](C)O)[C@@H](C)O)C(=O)N[C@@H](CC(=O)O)C(=O)N[C@@H](C)C(=O)N[C@@H](CCCNC(=N)N)C(=O)N[C@@H](CCCNC(=N)N)C(=O)N[C@@H](C)C(=O)N[C@@H](CCCNC(=N)N)C(=O)N[C@@H](CCC(=O)O)C(=O)N[C@@H](Cc1ccccc1)C(=O)N[C@H](C(=O)N[C@@H](CCC(N)=O)C(=O)N[C@@H](Cc1c[nH]c2ccccc12)C(=O)N[C@@H](CC(C)C)C(=O)N[C@@H](CC(C)C)C(=O)N[C@@H](CC(N)=O)C(=O)N[C@@H](CCCCNC(=O)CC[C@H](NC(=O)CC[C@H](NC(=O)COCCOCCNC(=O)CC[C@H](NC(=O)CCCCCCCCCCCCCCCCC(=O)O)C(=O)O)C(=O)O)C(=O)O)C(N)=O)C(C)C` [Example 39, N^ε29-[(4S)-4-carboxy-4-[[(4S)-4-carboxy-4-[[2-[2-[2-[[(4S)-4-carboxy-4-(17-carboxyheptadecanoylamino)butanoyl]amino]ethoxy]ethoxy]acetyl]amino]butanoyl]amino]butanoyl]-[Aib2,Leu10,Ala16,Arg20,Glu21,Leu27,Lys29]-Glucagon amide] (H-H[Aib]QGTFTSDLSKYLDARRAREFVQWLLNK([γGlu-γGlu-AEEA-γGlu-C18 diacid])-NH2; N-terminus assumed), the THT assay Lag time (Ex. 76) turned out to be 45 h.

Regarding `CC(C)C[C@H](NC(=O)[C@H](CC(C)C)NC(=O)[C@H](Cc1c[nH]c2ccccc12)NC(=O)[C@H](CCC(N)=O)NC(=O)[C@@H](NC(=O)[C@H](Cc1ccccc1)NC(=O)[C@H](CCC(=O)O)NC(=O)[C@H](CCCNC(=N)N)NC(=O)[C@H](C)NC(=O)[C@H](CCCNC(=N)N)NC(=O)[C@H](CCCNC(=N)N)NC(=O)[C@H](CO)NC(=O)[C@H](CCC(=O)O)NC(=O)[C@H](CC(C)C)NC(=O)[C@H](Cc1ccc(O)cc1)NC(=O)[C@H](CCCCN)NC(=O)[C@H](CO)NC(=O)[C@H](CC(C)C)NC(=O)[C@H](CC(=O)O)NC(=O)[C@H](CO)NC(=O)[C@@H](NC(=O)[C@H](Cc1ccccc1)NC(=O)[C@@H](NC(=O)CNC(=O)[C@H](CCC(N)=O)NC(=O)C(C)(C)NC(=O)[C@@H](N)Cc1c[nH]cn1)[C@@H](C)O)[C@@H](C)O)C(C)C)C(=O)N[C@@H](CC(N)=O)C(=O)N[C@@H](CCCCNC(=O)CC[C@H](NC(=O)CC[C@H](NC(=O)COCCOCCNC(=O)CC[C@H](NC(=O)CCCCCCCCCCCCCCCCC(=O)O)C(=O)O)C(=O)O)C(=O)O)C(N)=O` [Example 40, N^ε29-[(4S)-4-carboxy-4-[[(4S)-4-carboxy-4-[[2-[2-[2-[[(4S)-4-carboxy-4-(17-carboxyheptadecanoylamino)butanoyl]amino]ethoxy]ethoxy]acetyl]amino]butanoyl]amino]butanoyl]-[Aib2,Leu10,Glu15,Arg20,Glu21,Leu27,Lys29]-Glucagon amide] (H-H[Aib]QGTFTSDLSKYLESRRAREFVQWLLNK([γGlu-γGlu-AEEA-γGlu-C18 diacid])-NH2; N-terminus assumed), the THT assay Lag time (Ex. 76) came to 40 h.

In the case of `CC(C)C[C@H](NC(=O)[C@H](Cc1ccc(O)cc1)NC(=O)[C@H](CCCCN)NC(=O)[C@H](CO)NC(=O)[C@H](CC(C)C)NC(=O)[C@H](CC(=O)O)NC(=O)[C@H](CO)NC(=O)[C@@H](NC(=O)[C@H](Cc1ccccc1)NC(=O)[C@@H](NC(=O)CNC(=O)[C@H](CCC(N)=O)NC(=O)C(C)(C)NC(=O)[C@@H](N)Cc1c[nH]cn1)[C@@H](C)O)[C@@H](C)O)C(=O)N[C@@H](CCC(=O)O)C(=O)N[C@@H](CO)C(=O)N[C@@H](CCCNC(=N)N)C(=O)N[C@@H](CCCNC(=N)N)C(=O)N[C@@H](C)C(=O)N[C@@H](CCCNC(=N)N)C(=O)N[C@@H](CCC(=O)O)C(=O)N[C@@H](Cc1ccccc1)C(=O)N[C@H](C(=O)N[C@@H](CCC(N)=O)C(=O)N[C@@H](Cc1c[nH]c2ccccc12)C(=O)N[C@@H](CC(C)C)C(=O)N[C@@H](CC(C)C)C(=O)N[C@@H](CCCCNC(=O)CC[C@H](NC(=O)CC[C@H](NC(=O)CC[C@H](NC(=O)CCCCCCCCCCCCCCCCC(=O)O)C(=O)O)C(=O)O)C(=O)O)C(=O)N[C@H](C(N)=O)[C@@H](C)O)C(C)C` [Example 41, N^ε28-[(4S)-4-carboxy-4-[[(4S)-4-carboxy-4-[[(4S)-4-carboxy-4-(17-carboxyheptadecanoylamino)butanoyl]amino]butanoyl]amino]butanoyl]-[Aib2,Leu10,Glu15, Arg20,Glu21,Leu27,Lys28]-Glucagon amide] (H-H[Aib]QGTFTSDLSKYLESRRAREFVQWLLK([γGlu-γGlu-γGlu-C18 diacid])T-NH2; N-terminus assumed), the THT assay Lag time (Ex. 76) came out at 45 h.

`CC(C)C[C@H](NC(=O)[C@H](Cc1ccc(O)cc1)NC(=O)[C@H](CCCCN)NC(=O)[C@H](CO)NC(=O)[C@H](CC(C)C)NC(=O)[C@H](CC(=O)O)NC(=O)[C@H](CO)NC(=O)[C@@H](NC(=O)[C@H](Cc1ccccc1)NC(=O)[C@@H](NC(=O)CNC(=O)[C@H](CCC(N)=O)NC(=O)C(C)(C)NC(=O)[C@@H](N)Cc1c[nH]cn1)[C@@H](C)O)[C@@H](C)O)C(=O)N[C@@H](CCC(=O)O)C(=O)N[C@@H](CO)C(=O)N[C@@H](CCCNC(=N)N)C(=O)N[C@@H](CCCNC(=N)N)C(=O)N[C@@H](C)C(=O)N[C@@H](CCCNC(=N)N)C(=O)N[C@@H](CCC(=O)O)C(=O)N[C@@H](Cc1ccccc1)C(=O)N[C@H](C(=O)N[C@@H](CCC(N)=O)C(=O)N[C@@H](Cc1c[nH]c2ccccc12)C(=O)N[C@@H](CC(C)C)C(=O)N[C@@H](CC(C)C)C(=O)N[C@@H](CCCCNC(=O)COCCOCCNC(=O)COCCOCCNC(=O)CC[C@H](NC(=O)CC[C@H](NC(=O)CC[C@H](NC(=O)CCCCCCCCCCCCCCCCC(=O)O)C(=O)O)C(=O)O)C(=O)O)C(=O)N[C@H](C(N)=O)[C@@H](C)O)C(C)C` [Example 42, N^ε28-[2-[2-[2-[[2-[2-[2-[[(4S)-4-carboxy-4-[[(4S)-4-carboxy-4-[[(4S)-4-carboxy-4-(17-carboxyheptadecanoylamino)butanoyl]amino]butanoyl]amino]butanoyl]amino]ethoxy]ethoxy]acetyl]amino]ethoxy]ethoxy]acetyl]-[Aib2,Leu10,Glu15,Arg20,Glu21,Leu27,Lys28]-Glucagon amide] (H-H[Aib]QGTFTSDLSKYLESRRAREFVQWLLK([AEEA-AEEA-γGlu-γGlu-γGlu-C18 diacid])T-NH2; N-terminus assumed) had a THT assay Lag time (Ex. 76) of 45 h.

In turn, `CC(C)C[C@H](NC(=O)[C@H](Cc1ccc(O)cc1)NC(=O)[C@H](CCCCN)NC(=O)[C@H](CO)NC(=O)[C@H](CC(C)C)NC(=O)[C@H](CC(=O)O)NC(=O)[C@H](CO)NC(=O)[C@@H](NC(=O)[C@H](Cc1ccccc1)NC(=O)[C@@H](NC(=O)CNC(=O)[C@H](CCC(N)=O)NC(=O)C(C)(C)NC(=O)[C@@H](N)Cc1c[nH]cn1)[C@@H](C)O)[C@@H](C)O)C(=O)N[C@@H](CC(=O)O)C(=O)N[C@@H](C)C(=O)N[C@@H](CCCNC(=N)N)C(=O)N[C@@H](CCCNC(=N)N)C(=O)N[C@@H](C)C(=O)N[C@@H](CCCNC(=N)N)C(=O)N[C@@H](CCC(=O)O)C(=O)N[C@@H](Cc1ccccc1)C(=O)N[C@H](C(=O)N[C@@H](CCC(N)=O)C(=O)N[C@@H](Cc1c[nH]c2ccccc12)C(=O)N[C@@H](CC(C)C)C(=O)N[C@@H](CC(C)C)C(=O)N[C@@H](CCCCNC(=O)CC[C@H](NC(=O)CC[C@H](NC(=O)COCCOCCNC(=O)COCCOCCNC(=O)CC[C@H](NC(=O)CCCCCCCCCCCCCCCCC(=O)O)C(=O)O)C(=O)O)C(=O)O)C(=O)N[C@H](C(N)=O)[C@@H](C)O)C(C)C` [Example 43, N^ε28-[(4S)-4-carboxy-4-[[(4S)-4-carboxy-4-[[2-[2-[2-[[2-[2-[2-[[(4S)-4-carboxy-4-(17-carboxyheptadecanoylamino)butanoyl]amino]ethoxy]ethoxy]acetyl]amino]ethoxy]ethoxy]acetyl]amino]butanoyl]amino]butanoyl]-[Aib2,Leu10,Ala16,Arg20,Glu21,Leu27,Lys28]-Glucagon amide] (H-H[Aib]QGTFTSDLSKYLDARRAREFVQWLLK([γGlu-γGlu-AEEA-AEEA-γGlu-C18 diacid])T-NH2; N-terminus assumed) displayed a THT assay Lag time (Ex. 76) of 45 h.

The compound `CC(C)C[C@H](NC(=O)[C@H](Cc1ccc(O)cc1)NC(=O)[C@H](CCCCN)NC(=O)[C@H](CO)NC(=O)[C@H](CC(C)C)NC(=O)[C@H](CC(=O)O)NC(=O)[C@H](CO)NC(=O)[C@@H](NC(=O)[C@H](Cc1ccccc1)NC(=O)[C@@H](NC(=O)CNC(=O)[C@H](CCC(N)=O)NC(=O)C1(NC(=O)[C@@H](N)Cc2c[nH]cn2)CCC1)[C@@H](C)O)[C@@H](C)O)C(=O)N[C@@H](CCC(=O)O)C(=O)N[C@@H](CO)C(=O)N[C@@H](CCCNC(=N)N)C(=O)N[C@@H](CCCNC(=N)N)C(=O)N[C@@H](C)C(=O)N[C@@H](CCCNC(=N)N)C(=O)N[C@@H](CCC(=O)O)C(=O)N[C@@H](Cc1ccccc1)C(=O)N[C@H](C(=O)N[C@@H](CCC(N)=O)C(=O)N[C@@H](Cc1c[nH]c2ccccc12)C(=O)N[C@@H](CC(C)C)C(=O)N[C@@H](CC(C)C)C(=O)N[C@@H](CCCCNC(=O)CC[C@H](NC(=O)CC[C@H](NC(=O)COCCOCCNC(=O)COCCOCCNC(=O)CC[C@H](NC(=O)CCCCCCCCCCCCCCCCC(=O)O)C(=O)O)C(=O)O)C(=O)O)C(=O)N[C@H](C(N)=O)[C@@H](C)O)C(C)C` [Example 44, N^ε28-[(4S)-4-carboxy-4-[[(4S)-4-carboxy-4-[[2-[2-[2-[[2-[2-[2-[[(4S)-4-carboxy-4-(17-carboxyheptadecanoylamino)butanoyl]amino]ethoxy]ethoxy]acetyl]amino]ethoxy]ethoxy]acetyl]amino]butanoyl]amino]butanoyl]-[Acb2,Leu10,Glu15,Arg20,Glu21,Leu27,Lys28]-Glucagon amide] (H-H[Ac4c]QGTFTSDLSKYLESRRAREFVQWLLK([γGlu-γGlu-AEEA-AEEA-γGlu-C18 diacid])T-NH2; N-terminus assumed) had a THT assay Lag time (Ex. 76) of 45 h.
